Measurements: ChEMBL document CHEMBL1131750, “A substrate combinatorial array for caspases” (Bioorg Med Chem Lett, 1999)
Peptide text beside a SMILES is read from it. * marks the point of attachment. AMC = Cc1cc(=O)oc2cc(N*)ccc12

Columns and labels:
Format in all cases: ADME
[1] = Kinetic Constant of Ac-WVAD-AMC for compound
[2] = Km value of Ac-YVAD-AMC substrate for compound
[3] = Kinetic Constant of Ac-WEAD-AMC for compound
[4] = Vmax value of Ac-YVAD-AMC substrate for compound
[5] = Kinetic Constant of Ac-YVAD-AMC for compound

Km [1]: 27 µM
Vmax [1]: 1300 FU uM-1
Vmax / Km [1]: 48 FU min-1 uM-1
Km [2]: 20 µM
Km [3]: 9 µM
Vmax [3]: 1840 FU uM-1
Vmax / Km [3]: 204 FU min-1 uM-1
Vmax [4]: 1060 FU uM-1
Vmax / Km [5]: 53 FU min-1 uM-1
Compound: CC(=O)NCC(=O)NCC(=O)N[C@@H](C)C(=O)N[C@@H](CC(=O)O)C(=O)Nc1ccc2c(C)cc(=O)oc2c1 (Ac-GGAD-{AMC})
